Patent publication US5338830A, “Biologically active peptide derived from chicken (chicken CNP)” (Suntory Limited, priority 1990, dated 1994)
“Also recorded” adds a separate entry of the source. Read-outs that look alike come from different tables or passages of the source. Where a SMILES comes first, the peptide text is derived from it. Bridges are numbered along the chain shown (N, C = ends). Where no end group is shown, it is not given here.

Assays:
Male SD rats [1] = experiment: Diuretic and natriuretic action in anesthetized rats (urine amount, electrolyte excretion); format: in vivo, rat; conditions: for excretion Cl- / excretion K+ / excretion Na+ / excretion urine: urine 15 min after versus before, Mean±S.E.M.
Protocol: (§1) Diuretic action of cCNP was measured in accordance with the method described in […] et al and Sudoh et al ([…]. et al., Biochem. Biophys. Res. Commun., 118, 131-139, 1984; Sudoh, […]., Minamino, N. and Matsuo, H. Nature, 322, 78-81, 1988). Male SD rats (weight 300-400 g) were anesthetized by intraperitoneally receiving 50 mg/kg pentobarbitol, and a tracheal cannula (PE-240, Cray Adams) was provided to secure an airway. A cannula for measuring the blood pressure (PE-50) was inserted into one of the femoral arteries, and Ringer solution was injected through a cannula (PE-10) inserted into the femoral venous, at a constant rate of 1.8 ml/hr. Urine was collected into a test tube through a bladder cannula of silastic tube (inside diameter 0.02 inch, outside diameter 0.037 inch, Dow Corning). The collection of urine was carried out for 15 min before the administration of the peptides, at 5 min intervals after the administration till 15 min, and then at appropriate time intervals. The effect of the peptides was measured by comparing the amount of the urine samples and the concentration of the electrolyte in the urine samples, as well as by the change of the blood pressure. In the above assay, a predetermined amount of cCNP was dissolved in 0.1N acetic acid, and neutralized with one tenth volume of 1.3M Tris solution. Then, the solution was diluted with 50 μl of a sterile physiological water, and administered through the cervical vein. […] In Table 2, diuretic and natriuretic responses are shown in terms of the amount of the urine, the percentages in the […] of the excretion of Na^+, K^+ and Cl^- (Means±S.E.M.), in which urine samples were collected separately over 15 min before and after the intravenous injection of the peptides to anesthetized rats. Three to six rats were used for each peptide. […] In a typical experiment, the blood pressure at the contract phase of heart was decreased by about 5% over a period of 30 min by the action of 30 μg/kg of cCNP. […] Biochem. Biophys. Res. Commun., 168, 863-870, 1990).

Male SD rats [2] = experiment: Vasodepressor activity (change of blood pressure) in anesthetized rats; format: in vivo, rat
Protocol: as §1

chicken rectum = system: chicken rectum
Protocol: Relaxant activity in chicken rectum was measured in accordance with the method of […] and Currie ([…]. and Matsuo, H., Biochem. Biophys. Res. Commun., 118, 131-139, 1984; Currie, […]., Cole, […]. and Needleman, P. Science, 221, 71-73, 1983). The values are averages of six repeats. […] Although cCNP lacked the tail sequence at the C-terminal which had been considered to be important for analog peptides in displaying biological activities such as diuretic action (Watanabe, T. X., Noda, Y., Chino […]. and Imai, M. Eur. J.

[3] = 30 μg/kg intravenous, anesthetized rats
[4] = 90 μg/kg intravenous, anesthetized rats
[5] = 200 μg/kg intravenous, anesthetized rats
[6] = 3.0 μg/kg intravenous, anesthetized rats

Question: With `CC[C@H](C)[C@@H]1NC(=O)[C@H](CCCNC(=N)N)NC(=O)[C@H](CC(=O)O)NC(=O)[C@H](CC(C)C)NC(=O)[C@H](CCCCN)NC(=O)[C@H](C(C)C)NC(=O)CNC(=O)[C@H](Cc2ccccc2)NC(=O)[C@@H](NC(=O)[C@H](CO)NC(=O)[C@H](CCCNC(=N)N)NC(=O)[C@H](CO)NC(=O)[C@H](CC(C)C)NC(=O)CN)CSSC[C@@H](C(=O)O)NC(=O)CNC(=O)[C@H](CC(C)C)NC(=O)CNC(=O)[C@H](CO)NC(=O)[C@H](CCSC)NC(=O)[C@H](CO)NC(=O)CNC1=O` [cCNP] (H-GLSRSCFGVKLDRIGSMSGLGC-OH; disulfide 6-22) as the compound, how does the “excretion Cl-” value (Male SD rats [1]; [3]) read?
Answer: 171 ± 2%

Question: What about the “excretion K+” value (Male SD rats [1]; [3]) of the same compound?
Answer: 145 ± 12%

Question: What about the “excretion Na+” value (Male SD rats [1]; [3]) of the same compound?
Answer: 160 ± 9%

Question: What about the excretion urine (Male SD rats [1]; [3]) of the same compound?
Answer: 153 ± 32%

Question: And the “excretion Cl-” value (Male SD rats [1]; [4])?
Answer: 214 ± 5%

Question: And the “excretion K+” value (Male SD rats [1]; [4])?
Answer: 163 ± 02%

Question: And the “excretion Na+” value (Male SD rats [1]; [4])?
Answer: 193 ± 6%

Question: What about the excretion urine (Male SD rats [1]; [4]) of the same compound?
Answer: 261 ± 19%

Question: What about the “excretion Cl-” value (Male SD rats [1]; [5]) of the same compound?
Answer: 338 ± 107%

Question: And the “excretion K+” value (Male SD rats [1]; [5])?
Answer: 174 ± 18%

Question: And the “excretion Na+” value (Male SD rats [1]; [5])?
Answer: 385 ± 50%

Question: And the excretion urine (Male SD rats [1]; [5])?
Answer: 293 ± 50%

Question: What about the “diuretic and natriuretic actions compared to that of α-hANP” value (Male SD rats [1]; anesthetized rats, ratio to α-hANP) of the same compound?
Answer: about 1/100

Question: What about the “natriuretic action (in words)” value (Male SD rats [1]; rats) of the same compound?
Answer: natriuretic action; also recorded: increase dose dependently

Question: And the “decrease of blood pressure” value (Male SD rats [2]; [3])?
Answer: 4.4 ± 1.9%

Question: What about the “decrease of the blood pressure at the contract phase of heart” value (Male SD rats [2]; 30 μg/kg, over a period of 30 min, typical experiment, anesthetized rats) of the same compound?
Answer: about 5%

Question: What about the “decrease of blood pressure” value (Male SD rats [2]; [4]) of the same compound?
Answer: 0.3 ± 2.0%

Question: And the “decrease of blood pressure” value (Male SD rats [2]; [5])?
Answer: 11.5 ± 1.5%

Question: And the “vasodepressor activity (in words)” value (Male SD rats [2]; rats)?
Answer: weak vasodepressor action; also recorded: vasodepressor activity; also recorded: increase dose dependently

Question: What about the relative activity (chicken rectum) of the same compound?
Answer: 321

Question: And the “relaxant activity higher than fANP-21 (fold)” value (chicken rectum; cCNP versus fANP-21)?
Answer: ~5 times

Question: What about the “relaxant activity higher than α-hANP (fold)” value (chicken rectum; cCNP versus α-hANP) of the same compound?
Answer: about 2 times

Question: For “α-hANP: A-type (atrial) natriuretic peptide used as comparison; activity set to 100 (SLRRSSCFGGRMDRIGAQSGLGCNSFRY; ends and bridges not checked; cysteine pairing not given here; UniProt P01160 124-151, looked up) [reference compound]”, which “excretion Cl-” value (Male SD rats [1]; [6]) is on record?
Answer: 362 + 34%

Question: What about the “excretion K+” value (Male SD rats [1]; [6]) of the same compound?
Answer: 220 ± 22%

Question: What about the “excretion Na+” value (Male SD rats [1]; [6]) of the same compound?
Answer: 461 ± 41%

Question: What about the excretion urine (Male SD rats [1]; [6]) of the same compound?
Answer: 414 ± 46%

Question: And the “decrease of blood pressure” value (Male SD rats [2]; [6])?
Answer: 9.0 ± 2.5%

Question: And the relative activity (chicken rectum; relaxant activity of equimolar amount of peptides, activity of hANP = 100, averages of six repeats)?
Answer: 100
